Data on three compounds can be found in ChEMBL document CHEMBL1201862, “PubChem BioAssay data set” (2004).

A word on the IC50: it is the concentration that inhibits the measured activity by half.

Activity calls are given as the source filed them. Rule as the data show it: actives have a measured IC50 and inactives only a lower limit.

Sequence of Envelope glycoprotein gp160 (Q6QLK5 whole entry, the tested form may be a part): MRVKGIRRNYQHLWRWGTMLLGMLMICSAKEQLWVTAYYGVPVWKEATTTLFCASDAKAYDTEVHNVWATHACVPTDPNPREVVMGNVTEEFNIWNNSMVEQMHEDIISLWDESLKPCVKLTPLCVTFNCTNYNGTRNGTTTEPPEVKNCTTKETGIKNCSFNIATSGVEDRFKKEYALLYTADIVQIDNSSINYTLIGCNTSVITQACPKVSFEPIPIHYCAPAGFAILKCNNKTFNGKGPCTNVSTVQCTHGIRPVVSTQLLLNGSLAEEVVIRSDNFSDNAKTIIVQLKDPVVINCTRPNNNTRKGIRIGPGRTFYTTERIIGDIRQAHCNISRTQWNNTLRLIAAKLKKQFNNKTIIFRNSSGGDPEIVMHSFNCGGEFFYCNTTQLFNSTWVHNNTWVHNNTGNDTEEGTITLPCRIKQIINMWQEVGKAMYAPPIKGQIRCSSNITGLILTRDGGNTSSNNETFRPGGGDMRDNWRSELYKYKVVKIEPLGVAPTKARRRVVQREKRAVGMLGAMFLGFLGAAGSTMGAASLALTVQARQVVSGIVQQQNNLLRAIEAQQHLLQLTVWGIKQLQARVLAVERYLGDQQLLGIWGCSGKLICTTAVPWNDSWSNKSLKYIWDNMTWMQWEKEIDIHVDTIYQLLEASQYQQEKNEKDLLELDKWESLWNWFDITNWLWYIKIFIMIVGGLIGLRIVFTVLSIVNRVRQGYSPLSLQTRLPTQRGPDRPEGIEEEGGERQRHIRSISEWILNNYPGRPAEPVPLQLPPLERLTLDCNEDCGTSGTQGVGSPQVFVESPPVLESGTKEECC

The experiment has as its target Envelope glycoprotein gp160 (Human immunodeficiency virus 1, UniProt Q6QLK5). The experiment is described as follows: inhibitors of HIV fusion peptide binding, primary screen, biochemical, uHTS, fluorescence dequenching (AID 1986).
As for `CC(C)S(=O)(=O)C1=NSC2=NC(=O)/C(=C\c3ccc(-c4ccccc4)o3)C(=N)N21`, the half-maximal inhibitory concentration (IC50) was 8.73 µM (active). Consider `COc1ccc(NS(=O)(=O)c2ccc3c(c2)[C@H]2C=CC[C@H]2[C@@H](c2ccc(C(=O)O)cc2)N3)cc1`, for which the half-inhibitory concentration (IC50) is 8.25 µM (active).

`O=C1/C(=C\c2ccc(O)c(O)c2)C(c2ccccc2)=NN1c1ccccc1`: the half-inhibitory concentration (IC50) is 17.6 µM (active).
